This is an account of results in ChEMBL document CHEMBL4609983, “Pan-specific and partially selective dye-labeled peptidic inhibitors of the polycomb paralog proteins” (Bioorg Med Chem, 2020).

Activity calls are given as the source filed them. The calls are words filed in the database; no cut-off is given here. Non-standard residues stand in square brackets, D forms with d. Residues, ends and D or L forms follow the SMILES beside them. *: point of attachment. Biotin = O=C1N[C@H]2[C@H](CS[C@H]2CCCCC(=O)*)N1; Lys(Me3) = C[N+](C)(C)CCCC[C@H](N)C(=O)O; Benzoyl(4-Br) = O=C(c1ccc(Br)cc1)*

Experiment [1] deals with T1, Testis-specific chromodomain protein Y 1 (Homo sapiens) (UniProt Q9Y6F8).
T1 sequence (whole entry): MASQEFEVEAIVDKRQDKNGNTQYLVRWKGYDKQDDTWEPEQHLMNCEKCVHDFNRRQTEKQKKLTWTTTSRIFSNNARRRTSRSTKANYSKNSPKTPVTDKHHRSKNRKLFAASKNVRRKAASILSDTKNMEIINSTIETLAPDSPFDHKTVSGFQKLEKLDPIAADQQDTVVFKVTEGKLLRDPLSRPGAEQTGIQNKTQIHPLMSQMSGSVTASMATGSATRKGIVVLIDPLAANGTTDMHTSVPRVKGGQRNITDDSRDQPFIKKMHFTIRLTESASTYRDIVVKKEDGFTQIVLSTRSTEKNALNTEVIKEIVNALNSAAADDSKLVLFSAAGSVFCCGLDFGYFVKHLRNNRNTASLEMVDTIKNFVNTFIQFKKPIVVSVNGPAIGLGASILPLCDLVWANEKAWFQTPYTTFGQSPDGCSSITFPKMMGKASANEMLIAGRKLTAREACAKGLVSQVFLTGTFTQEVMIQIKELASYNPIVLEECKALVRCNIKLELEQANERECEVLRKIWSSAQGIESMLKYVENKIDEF
Kind of experiment: Binding affinity to recombinant human CDY1 by microarray based assay.

Experiment [2] has as its target T2, Chromobox protein homolog 6 (Homo sapiens) (UniProt O95503).
T2 sequence (whole entry): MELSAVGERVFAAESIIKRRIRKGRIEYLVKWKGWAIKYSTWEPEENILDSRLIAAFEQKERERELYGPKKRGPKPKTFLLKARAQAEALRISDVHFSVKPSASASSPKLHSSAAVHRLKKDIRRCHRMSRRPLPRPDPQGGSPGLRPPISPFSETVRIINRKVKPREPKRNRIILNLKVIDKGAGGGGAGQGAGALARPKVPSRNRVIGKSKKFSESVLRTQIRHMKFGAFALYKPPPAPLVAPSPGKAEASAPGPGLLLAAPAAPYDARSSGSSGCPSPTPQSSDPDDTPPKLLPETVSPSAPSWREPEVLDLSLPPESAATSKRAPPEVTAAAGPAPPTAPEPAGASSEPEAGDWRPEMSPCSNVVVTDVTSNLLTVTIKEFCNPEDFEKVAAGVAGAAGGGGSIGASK
The experiment in a line: Binding affinity to recombinant human CBX6 by microarray based assay.

Consider `CC(C)C[C@H](NC(=O)[C@H](CO)NC(=O)[C@H](CCCC[N+](C)(C)C)NC(=O)[C@H](Cc1ccc(O)cc1)NC(=O)[C@H](C)NC(=O)[C@H](Cc1ccccc1)NC(=O)c1ccc(Br)cc1)C(=O)N[C@@H](CCCCNC(=O)CCCC[C@@H]1SC[C@@H]2NC(=O)N[C@@H]21)C(N)=O` ({Benzoyl(4-Br)}-FAY[Lys(Me3)]SLK(Biotin)-NH2), for which the result in experiment [1] and in experiment [2] was Active.
